Among the data in ChEMBL document CHEMBL3217515, “Synthesis and biological evaluation of 2,3-bis(het)aryl-4-azaindole derivatives as protein kinase inhibitors” (Medchemcomm, 2011) are IC50 values, retold here.

The structures appear in SMILES notation. Where only a bound is given, the exact number is not on record here.

One may read the IC50 as the midpoint of a concentration-inhibition curve.

Experiment [1] deals with RAF proto-oncogene serine/threonine-protein kinase (Homo sapiens, UniProt P04049). Briefly: Inhibition of RAF1 (unknown origin).
In experiment [2] the target is Cyclin-dependent kinase 5 (Homo sapiens, UniProt Q00535). Briefly: Inhibition of CDK5 (unknown origin).
In experiment [3] the target is Dual specificity tyrosine-phosphorylation-regulated kinase 1A (Homo sapiens, UniProt Q13627). Briefly: Inhibition of DYRK1A (unknown origin).
Experiment [4] addresses Glycogen synthase kinase-3 beta (Homo sapiens, UniProt P49841). Briefly: Inhibition of GSK3beta (unknown origin).

RAF proto-oncogene serine/threonine-protein kinase, sequence (P04049 whole entry): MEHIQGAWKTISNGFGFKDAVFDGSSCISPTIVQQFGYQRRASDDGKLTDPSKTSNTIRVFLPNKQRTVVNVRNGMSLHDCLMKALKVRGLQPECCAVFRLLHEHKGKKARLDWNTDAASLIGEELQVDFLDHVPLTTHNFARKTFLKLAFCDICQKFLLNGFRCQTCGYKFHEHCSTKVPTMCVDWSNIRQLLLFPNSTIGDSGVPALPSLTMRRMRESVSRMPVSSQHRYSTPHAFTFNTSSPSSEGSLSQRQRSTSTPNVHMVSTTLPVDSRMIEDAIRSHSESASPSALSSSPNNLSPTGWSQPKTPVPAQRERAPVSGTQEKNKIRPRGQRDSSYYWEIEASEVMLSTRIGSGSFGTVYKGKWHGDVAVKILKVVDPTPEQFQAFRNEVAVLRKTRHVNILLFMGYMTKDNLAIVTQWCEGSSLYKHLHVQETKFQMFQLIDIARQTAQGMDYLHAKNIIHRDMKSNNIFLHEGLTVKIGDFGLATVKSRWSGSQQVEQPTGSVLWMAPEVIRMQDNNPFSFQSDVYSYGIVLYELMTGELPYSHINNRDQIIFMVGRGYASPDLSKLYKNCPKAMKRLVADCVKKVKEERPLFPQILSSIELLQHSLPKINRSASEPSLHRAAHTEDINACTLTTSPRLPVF
Glycogen synthase kinase-3 beta, sequence (P49841 whole entry): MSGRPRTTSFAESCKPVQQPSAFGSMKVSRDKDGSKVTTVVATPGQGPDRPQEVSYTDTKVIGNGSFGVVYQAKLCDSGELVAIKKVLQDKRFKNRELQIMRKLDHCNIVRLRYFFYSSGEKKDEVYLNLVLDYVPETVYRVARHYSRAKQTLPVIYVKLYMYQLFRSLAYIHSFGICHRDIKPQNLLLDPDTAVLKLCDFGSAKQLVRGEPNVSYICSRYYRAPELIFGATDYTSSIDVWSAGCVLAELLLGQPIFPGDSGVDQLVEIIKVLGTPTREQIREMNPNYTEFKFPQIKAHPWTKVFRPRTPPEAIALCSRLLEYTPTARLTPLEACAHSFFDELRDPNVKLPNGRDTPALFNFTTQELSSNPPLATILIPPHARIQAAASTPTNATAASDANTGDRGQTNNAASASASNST
Cyclin-dependent kinase 5, sequence (Q00535 whole entry): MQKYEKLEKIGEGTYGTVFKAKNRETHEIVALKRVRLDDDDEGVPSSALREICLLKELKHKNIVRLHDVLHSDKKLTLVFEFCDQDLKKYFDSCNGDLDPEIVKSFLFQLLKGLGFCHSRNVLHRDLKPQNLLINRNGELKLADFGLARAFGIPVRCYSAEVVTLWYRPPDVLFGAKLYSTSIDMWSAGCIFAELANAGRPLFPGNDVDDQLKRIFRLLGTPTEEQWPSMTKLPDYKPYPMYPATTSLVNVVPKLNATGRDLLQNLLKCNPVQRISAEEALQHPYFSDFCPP

Consider `COc1ccc2[nH]c(-c3ccccc3)c(-c3ccncc3)c2n1`, for which the IC50 was 3.2 µM in experiment [1], > 10 µM in experiment [2], 1.3 µM in experiment [3] and > 10 µM in experiment [4].

Take `COc1ccc2[nH]c(-c3ccccc3O)c(-c3ccncc3)c2n1`: the IC50 was > 10 µM in experiment [2], 0.23 µM in experiment [3] and > 10 µM in experiment [4].

For `COc1ccc2[nH]c(-c3cccc(O)c3)c(-c3ccncc3)c2n1`, the IC50 is 0.286 µM in experiment [1], > 10 µM in experiment [2], 0.7 µM in experiment [3] and > 10 µM in experiment [4].

As for `COc1ccc2[nH]c(-c3ccc(O)cc3)c(-c3ccncc3)c2n1`, the IC50 in experiment [1] was 1.3 µM; in experiment [2] it was > 10 µM; in experiment [3], 0.47 µM; in experiment [4], > 10 µM.

For `COc1ccc2[nH]c(-c3cccc(F)c3)c(-c3ccncc3)c2n1`, the IC50 in experiment [1] was 4.3 µM; in experiment [2] it was > 10 µM; in experiment [3] it was 1.8 µM; in experiment [4] it was > 10 µM.

As for `COc1ccc2[nH]c(-c3ccc4cc(O)ccc4c3)c(-c3ccncc3)c2n1`, the IC50 is > 50 µM in experiment [1], > 10 µM in experiment [2], 0.84 µM in experiment [3] and > 10 µM in experiment [4].

As for `COc1ccc2[nH]c(-c3cc(O)cc(O)c3)c(-c3ccncc3)c2n1`, the IC50 in experiment [1] is > 50 µM; in experiment [2] it was > 10 µM; in experiment [3], > 10 µM; in experiment [4], > 10 µM.

Consider `COc1ccc2[nH]c(-c3cccc(O)c3)c(-c3cccnc3)c2n1`, for which the IC50 in experiment [1] was 16.5 µM; in experiment [2], > 10 µM; in experiment [3], > 10 µM; in experiment [4], > 10 µM.

Turning to `COc1ccc2[nH]c(-c3cccc(O)c3)c(-c3ccccn3)c2n1`, the IC50 in experiment [1] is 9.2 µM; in experiment [2], > 10 µM; in experiment [3], > 10 µM; in experiment [4], > 10 µM.
